The values that follow come from patent publication US8865745B2, “Pyrazolone derivatives as PDE4 inhibitors” (Takeda GmbH, priority 2007, dated 2014).

The target in one data set is PDE4B1 (Homo sapiens (Human), UniProt Q07343). Nature of the data set: Inhibition of PDE4 activity, [3H]cAMP SPA enzyme assay with recombinant PDE4B1. It is filed as biochemical. The note with it: recombinant PDE4B1 expressed in SF21 cells, 0.5 μM cAMP, 37° C. As for the experimental part:
Method for Measuring Inhibition of PDE4 Activity
The PDE4B1 (GB no. L20966) was a gift of Prof. M. Conti (Stanford University, USA). It was amplified from the original plasmid (pCMV5) via PCR with primers Rb18 (5′-[…]-3′) and Rb10 (5′-[…]-3′) and cloned into the pCR-Bac vector (Invitrogen, Groningen, NL).
The recombinant baculovirus was prepared by means of homologous recombination in SF9 insect cells. The expression plasmids were cotransfected with Baculo-Gold DNA (Pharmingen, Hamburg) using a standard protocol (Pharmingen, Hamburg). Wt virus-free recombinant virus supernatants were selected using plaque assay methods. After that, high-titre virus supernatants were prepared by amplifying 3 times. PDE4B1 was expressed in SF21 cells by infecting 2×10^6 cells/ml with an MOI (multiplicity of infection) between 1 and 10 in the serum-free medium Insect Express Sf9-S2 (PAA, Pasching, Austria). The cells were cultured at 28° C. for 48-72 hours, after which they were pelleted for 5-10 min at 1000×g and 4° C.
The SF21 insect cells were resuspended, at a concentration of approx. 10^7 cells/ml, in ice-cold (4° C.) homogenization buffer (20 mM Tris, pH 8.2, containing the following additions: 140 mM NaCl, 3.8 mM KCl, 1 mM EGTA, 1 mM MgCl2, 10 mM β-mercaptoethanol, 2 mM benzamidine, 0.4 mM Pefablock, […] leupeptin, 10 μM pepstatin A, 5 μM trypsin inhibitor) and disrupted by ultrasonication. The homogenate was then centrifuged for 10 min at 1000×g and the supernatant was stored at −80° C. until subsequent use (see below). The protein content was determined by the Bradford method (BioRad, Munich) using BSA as the standard.
PDE4B1 activity was inhibited by the compounds according to the invention in a modified SPA (scintillation proximity assay) test, supplied by Amersham Biosciences (see procedural instructions “phosphodiesterase [3H]cAMP SPA enzyme assay, code TRKQ 7090”), carried out in 96-well microtitre plates (MTP's). The test volume is 100 μl and contains 20 mM Tris buffer (pH 7.4), 0.1 mg/ml of BSA, 5 mM Mg^2+, 0.5 μM cAMP (including about 50,000 cpm of [3H]cAMP), 1 μl of the respective substance dilution in DMSO and sufficient recombinant PDE (1000×g supernatant, see above) to ensure that 10-20% of the cAMP is converted under the said experimental conditions. […] After a preincubation of 5 min at 37° C., the reaction is started by adding the substrate (cAMP) and the assays are incubated for a further 15 min; after that, they are stopped by adding SPA beads (50 μl). In accordance with the manufacturer's instructions, the SPA beads had previously been resuspended in water, but were then diluted 1:3 (v/v) in water; the diluted solution also contains 3 mM IBMX to ensure a complete PDE activity stop. After the beads have been sedimented (>30 min), the MTP's are analyzed in commercially available luminescence detection devices. The corresponding IC50 values of the compounds for the inhibition of […] activity are determined from the concentration-effect curves by means of non-linear regression.
The inhibitory values determined for the compounds according to the invention follow from the following Table 1, in which the numbers of the compounds correspond to the numbers of the examples.

Chain of PDE4B1 (Q07343 whole entry): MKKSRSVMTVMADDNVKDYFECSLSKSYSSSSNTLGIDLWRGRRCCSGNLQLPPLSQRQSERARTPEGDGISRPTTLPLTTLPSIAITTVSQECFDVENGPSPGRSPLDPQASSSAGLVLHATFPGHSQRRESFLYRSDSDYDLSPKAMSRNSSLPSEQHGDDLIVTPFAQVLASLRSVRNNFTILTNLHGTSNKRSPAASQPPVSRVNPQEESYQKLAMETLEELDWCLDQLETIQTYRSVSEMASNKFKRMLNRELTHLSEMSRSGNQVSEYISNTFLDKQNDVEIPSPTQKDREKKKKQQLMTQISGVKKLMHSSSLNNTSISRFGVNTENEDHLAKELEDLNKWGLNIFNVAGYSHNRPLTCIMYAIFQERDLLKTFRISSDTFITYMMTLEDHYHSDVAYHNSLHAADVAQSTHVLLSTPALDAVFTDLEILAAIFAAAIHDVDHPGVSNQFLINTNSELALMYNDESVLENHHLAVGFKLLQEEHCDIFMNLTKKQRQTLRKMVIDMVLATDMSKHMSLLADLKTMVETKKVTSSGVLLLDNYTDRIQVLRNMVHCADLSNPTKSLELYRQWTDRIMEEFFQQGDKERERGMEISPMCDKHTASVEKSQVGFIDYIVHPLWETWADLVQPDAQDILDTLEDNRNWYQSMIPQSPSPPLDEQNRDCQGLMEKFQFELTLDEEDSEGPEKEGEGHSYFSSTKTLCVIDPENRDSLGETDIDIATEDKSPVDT

On to `COc1ccc(C2=NN(C3CCN(C(=O)CN4C(=O)CCCC4=O)CC3)C(=O)C2(C)C)cc1OC` [Compound 15, 1-(2-{4-[3-(3,4-Dimethoxy-phenyl)-4,4-dimethyl-5-oxo-4,5-dihydro-pyrazol-1-yl]-piperidin-1-yl}-2-oxo-ethyl)-piperidine-2,6-dione], for which the “PDE4 Inhibition [measured as −logIC50 (mol/l)]” value at PDE4B1 is given as 7.90 −logIC50 (mol/l).

`COc1ccc(C2=NN(C3CCN(C(=O)CN4C(=O)CCC4=O)CC3)C(=O)C2(C)C)cc1OC` [Compound 2, 1-(2-{4-[3-(3,4-dimethoxyphenyl)-4,4-dimethyl-5-oxo-4,5-dihydro-1H-pyrazol-1-yl]piperidin-1-yl}-2-oxoethyl)pyrrolidine-2,5-dione]: the melting point was in the range of 218 to 220 °C. In addition, on PDE4B1, the “PDE4 Inhibition [measured as −logIC50 (mol/l)]” value is listed as 8.09 −logIC50 (mol/l).

On to `CCOc1ccc(C2=NN(C3CCN(C(=O)CN4C(=O)CCC4=O)CC3)C(=O)C2(C)C)cc1OCC` [Compound 3, 1-(2-{-4-[3-(3,4-diethoxyphenyl)-4,4-dimethyl-5-oxo-4,5-dihydro-1H-pyrazol-1-yl]piperidin-1-yl}-2-oxoethyl)pyrrolidine-2,5-dione], for which the “PDE4 Inhibition [measured as −logIC50 (mol/l)]” value on PDE4B1 was 7.75 −logIC50 (mol/l).

Consider `COc1ccc(C2=NN(C3CCN(C(=O)CN4C(=O)CS(=O)(=O)CC4=O)CC3)C(=O)C2(C)C)cc1OC` [Compound 18, 4-(2-{-4-[3-(3,4-dimethoxyphenyl)-4,4-dimethyl-5-oxo-4,5-dihydro-1H-pyrazol-1-yl]piperidin-1-yl}-2-oxoethyl)thiomorpholine-3,5-dione 1,1-dioxide], for which the melting point fell in the range of 146 to 148 °C. In addition, on PDE4B1, the “PDE4 Inhibition [measured as −logIC50 (mol/l)]” value is 8.42 −logIC50 (mol/l).

As for `CCC1(C)C(=O)N(C2CCN(C(=O)CN3C(=O)CCC3=O)CC2)N=C1c1ccc(OC)c(OC)c1` (centres unmarked) [Compound 12, 1-(2-{4-[3-(3,4-dimethoxyphenyl)-4-ethyl-4-methyl-5-oxo-4,5-dihydro-1H-pyrazol-1-yl]piperidin-1-yl}-2-oxoethyl)pyrrolidine-2,5-dione], the “PDE4 Inhibition [measured as −logIC50 (mol/l)]” value at PDE4B1 is 7.46 −logIC50 (mol/l).

Regarding `COc1ccc(C2=NN(C3CCN(C(=O)CN4C(=O)COCC4=O)CC3)C(=O)C2(C)C)cc1OC` [Compound 1, 4-(2-{4-[3-(3,4-dimethoxyphenyl)-4,4-dimethyl-5-oxo-4,5-dihydro-1H-pyrazol-1-yl]piperidin-1-yl}-2-oxoethyl)morpholine-3,5-dione], the melting point was in the range of 156 to 157 °C. Besides, the “PDE4 Inhibition [measured as −logIC50 (mol/l)]” value on PDE4B1 was 8.29 −logIC50 (mol/l).

Turning to `COc1ccc(C2=NN(C3CCN(C(=O)CN4CCCC4=O)CC3)C(=O)C2(C)C)cc1OC` [Compound 16, 5-(3,4-dimethoxyphenyl)-4,4-dimethyl-2-{1-[(2-oxopyrrolidin-1-yl)acetyl]piperidin-4-yl}-2,4-dihydro-3H-pyrazol-3-one], the melting point lay within 125 to 131 °C. Moreover, the “PDE4 Inhibition [measured as −logIC50 (mol/l)]” value at PDE4B1 was 7.48 −logIC50 (mol/l).

Regarding `CC1(C)C(=O)N(C2CCN(C(=O)CN3C(=O)CCC3=O)CC2)N=C1c1ccc(OC(F)F)c(OCC2CC2)c1` [Compound 4, 1-[2-(4-{3-[3-(cyclopropylmethoxy)-4-(difluoromethoxy)phenyl]-4,4-dimethyl-5-oxo-4,5-dihydro-1H-pyrazol-1-yl}piperidin-1-yl)-2-oxoethyl]pyrrolidine-2,5-dione], the “PDE4 Inhibition [measured as −logIC50 (mol/l)]” value at PDE4B1 is on record as 7.74 −logIC50 (mol/l).

For the molecule `COc1ccc(C2=NN(C3CCN(C(=O)CN4C(=O)CCC4=O)CC3)C(=O)C2(C)C)c2c1OC1(CCCC1)C2` [Compound 9], on PDE4B1, the “PDE4 Inhibition [measured as −logIC50 (mol/l)]” value is listed as 8.23 −logIC50 (mol/l).

Turning to `COc1ccc(C2=NN(C3CCN(C(=O)CN4C(=O)c5ccccc5C4=O)CC3)C(=O)C2(C)C)cc1OC` [Compound 14, 2-(2-{4-[3-(3,4-dimethoxyphenyl)-4,4-dimethyl-5-oxo-4,5-dihydro-1H-pyrazol-1-yl]piperidin-1-yl}-2-oxoethyl)-1H-isoindole-1,3(2H)-dione], on PDE4B1, the “PDE4 Inhibition [measured as −logIC50 (mol/l)]” value is reported as 9.06 −logIC50 (mol/l).

As to `COc1ccc(C2=NN(C3CCN(C(=O)CCN4C(=O)CCC4=O)CC3)C(=O)C2(C)C)cc1OC` [Compound 19, 1-(3-{4-[3-(3,4-Dimethoxy-phenyl)-4,4-dimethyl-5-oxo-4,5-dihydro-pyrazol-1-yl]-piperidin-1-yl}-3-oxo-propyl)-pyrrolidine-2,5-dione], the melting point fell in the range of 207 to 209 °C. For the same molecule, on PDE4B1, the “PDE4 Inhibition [measured as −logIC50 (mol/l)]” value is 7.48 −logIC50 (mol/l).

With `CCOc1cc(C2=NN(C3CCN(C(=O)CN4C(=O)CCC4=O)CC3)C(=O)C2(C)C)ccc1OC` [Compound 7, 1-(2-{4-[3-(3-ethoxy-4-methoxyphenyl)-4,4-dimethyl-5-oxo-4,5-dihydro-1H-pyrazol-1-yl]piperidin-1-yl}-2-oxoethyl)pyrrolidine-2,5-dione], on PDE4B1, the “PDE4 Inhibition [measured as −logIC50 (mol/l)]” value is 7.65 −logIC50 (mol/l).

Take `COc1ccc(C2=NN(C3CCN(C(=O)CN4C(=O)Cc5ccccc54)CC3)C(=O)C2(C)C)cc1OC` [Compound 20, 1-(2-{4-[3-(3,4-Dimethoxy-phenyl)-4,4-dimethyl-5-oxo-4,5-dihydro-pyrazol-1-yl]-piperidin-1-yl}-2-oxo-ethyl)-1,3-dihydro-2H-indol-2-one]: the melting point turned out to be 178 °C. For the same molecule, the “PDE4 Inhibition [measured as −logIC50 (mol/l)]” value at PDE4B1 is listed as 8.24 −logIC50 (mol/l).

`COc1ccc(C2=NN(C3CCN(C(=O)CN4C(=O)CCC4=O)CC3)C(=O)C2(C)C)cc1OCC(F)(F)F` [Compound 6, 1-[2-(4-{3-[4-methoxy-3-(2,2,2-trifluoroethoxy)phenyl]-4,4-dimethyl-5-oxo-4,5-dihydro-1H-pyrazol-1-yl}piperidin-1-yl)-2-oxoethyl]pyrrolidine-2,5-dione]: the “PDE4 Inhibition [measured as −logIC50 (mol/l)]” value on PDE4B1 is reported as 6.84 −logIC50 (mol/l).

For the molecule `CCCC1(C)C(=O)N(C2CCN(C(=O)CN3C(=O)CCC3=O)CC2)N=C1c1ccc(OC)c(OC)c1` (centres unmarked) [Compound 11, 1-(2-{4-[3-(3,4-dimethoxyphenyl)-4-methyl-5-oxo-4-propyl-4,5-dihydro-1H-pyrazol-1-yl]piperidin-1-yl}-2-oxoethyl)pyrrolidine-2,5-dione], on PDE4B1, the “PDE4 Inhibition [measured as −logIC50 (mol/l)]” value is 8.08 −logIC50 (mol/l).

For the molecule `COc1ccc(C2=NN(C3CCN(C(=O)CN4C(=O)CCC4=O)CC3)C(=O)C23CCCC3)cc1OC` [Compound 13, 1-(2-{4-[4-(3,4-dimethoxyphenyl)-1-oxo-2,3-diazaspiro[4.4]non-3-en-2-yl]piperidin-1-yl}-2-oxoethyl)pyrrolidine-2,5-dione], the “PDE4 Inhibition [measured as −logIC50 (mol/l)]” value on PDE4B1 is reported as 7.79 −logIC50 (mol/l).

Turning to `COc1ccc(C2=NN(C3CCN(C(=O)CN4C(=O)CSCC4=O)CC3)C(=O)C2(C)C)cc1OC` [Compound 17, 4-(2-{4-[3-(3,4-dimethoxyphenyl)-4,4-dimethyl-5-oxo-4,5-dihydro-1′-1-pyrazol-1-yl]piperidin-1-yl}-2-oxoethyl)thiomorpholine-3,5-dione], on PDE4B1, the “PDE4 Inhibition [measured as −logIC50 (mol/l)]” value is listed as 8.27 −logIC50 (mol/l).

Consider `COc1ccc(C2=NN(C3CCN(C(=O)CN4C(=O)CCC4=O)CC3)C(=O)C2(C)C)c2c1OC(C)(C)C2` [Compound 8], for which, on PDE4B1, the “PDE4 Inhibition [measured as −logIC50 (mol/l)]” value is recorded as 8.53 −logIC50 (mol/l).

As for `COc1ccc(C2=NN(C3CCN(C(=O)CN4C(=O)CCC4=O)CC3)C(=O)C2(C)C)cc1OCC1CC1` [Compound 5, 1-[2-(4-{3-[3-(cyclopropylmethoxy)-4-methoxyphenyl]-4,4-dimethyl-5-oxo-4,5-dihydro-1H-pyrazol-1-yl}piperidin-1-yl)-2-oxoethyl]pyrrolidine-2,5-dione], the melting point lay in the range of 129 to 131 °C. In addition, the “PDE4 Inhibition [measured as −logIC50 (mol/l)]” value on PDE4B1 is listed as 7.15 −logIC50 (mol/l).

The melting point is the temperature, or range, at which the solid turns liquid.
